Assay results as given in ChEMBL document CHEMBL3044615, “Synthesis and in vitro antimicrobial activity of benzo[b][1,4]thiazin-3(4H)-ones via smiles rearrangement” (2011).
In brackets after ≈: the same amount, converted by molar mass. Activity calls are given as the source filed them. The calls are words filed in the database; no cut-off is given here.

Assays:
Type in all cases: functional
Saccharomyces cerevisiae = assay: Microbiostatic activity against Saccharomyces cerevisiae ATCC 74212 after 48 hr by two fold microdilution technique
Candida albicans = assay: Microbiostatic activity against Candida albicans ATCC 76615 after 48 hr by two-fold microdilution technique
Pseudomonas aeruginosa = assay: Antibacterial activity against Pseudomonas aeruginosa ATCC 27853 after 24 hr by two-fold microdilution technique; details: ATCC 27853, 24 h
Proteus vulgaris = assay: Antibacterial activity against Proteus vulgaris ATCC 6896 after 24 hr by two-fold microdilution technique; details: ATCC 6896, 24 h
Escherichia coli = assay: Antibacterial activity against Escherichia coli ATCC 25922 after 24 hr by two-fold microdilution technique; details: ATCC 25922, 24 h
Micrococcus luteus = assay: Antibacterial activity against Micrococcus luteus NCTC 2665 after 24 hr by two-fold microdilution technique; details: NCTC 2665, 24 h
Bacillus subtilis = assay: Antibacterial activity against Bacillus subtilis ATCC 6633 after 24 hr by two fold microdilution technique; details: ATCC 6633, 24 h
Staphylococcus aureus = assay: Antibacterial activity against Staphylococcus aureus ATCC 25923 after 24 hr by two fold microdilution technique; details: ATCC 25923, 24 h

Compound	MIC (Saccharomyces cerevisiae; ATCC 74212, 48 h) [µg/mL]	MIC (Candida albicans; ATCC 76615, 48 h) [µg/mL]	MIC (Pseudomonas aeruginosa) [µg/mL]	MIC (Proteus vulgaris) [µg/mL]	MIC (Escherichia coli) [µg/mL]	MIC (Micrococcus luteus) [µg/mL]	MIC (Bacillus subtilis) [µg/mL]	MIC (Staphylococcus aureus) [µg/mL]	MIC (Saccharomyces cerevisiae)	MIC (Candida albicans)
O=C1CSc2c(Cl)cccc2N1CC1CCCO1 (stereo not given)	128 (≈ 451 µM)	128 (≈ 451 µM)	128 (≈ 451 µM)	64 (≈ 226 µM)	64 (≈ 226 µM)	32 (≈ 113 µM)	16 (≈ 56.4 µM)	32 (≈ 113 µM)	–	–
CCCCCCN1C(=O)CSc2ccc(Cl)cc21	–	–	64 (≈ 225 µM)	32 (≈ 113 µM)	32 (≈ 113 µM)	16 (≈ 56.4 µM)	32 (≈ 113 µM)	32 (≈ 113 µM)	inactive	inactive
CC(C)(O/N=C(\C(=O)N[C@@H]1C(=O)N2C(C(=O)[O-])=C(C[n+]3ccccc3)CS[C@H]12)c1csc(N)n1)C(=O)O [CEFTAZIDIME]	–	–	128 (≈ 234 µM)	4 (≈ 7.32 µM)	4 (≈ 7.32 µM)	16 (≈ 29.3 µM)	2 (≈ 3.66 µM)	4 (≈ 7.32 µM)	inactive	inactive
O=C1CSc2cccc(Cl)c2N1CC1CCCO1 (stereo not given)	128 (≈ 451 µM)	64 (≈ 226 µM)	64 (≈ 226 µM)	32 (≈ 113 µM)	32 (≈ 113 µM)	32 (≈ 113 µM)	32 (≈ 113 µM)	32 (≈ 113 µM)	–	–
O=C1CSc2ccc(Cl)cc2N1Cc1ccccc1	64 (≈ 221 µM)	64 (≈ 221 µM)	32 (≈ 110 µM)	32 (≈ 110 µM)	32 (≈ 110 µM)	16 (≈ 55.2 µM)	32 (≈ 110 µM)	16 (≈ 55.2 µM)	–	–
Clc1ccccc1C(c1ccccc1)(c1ccccc1)n1ccnc1 [CLOTRIMAZOLE]	4 (≈ 11.6 µM)	2 (≈ 5.8 µM)	512 (≈ 1480 µM)	512 (≈ 1480 µM)	512 (≈ 1480 µM)	512 (≈ 1480 µM)	512 (≈ 1480 µM)	512 (≈ 1480 µM)	–	–
O=C1CSc2cccc(Cl)c2N1Cc1ccccc1	128 (≈ 442 µM)	–	32 (≈ 110 µM)	64 (≈ 221 µM)	16 (≈ 55.2 µM)	32 (≈ 110 µM)	32 (≈ 110 µM)	32 (≈ 110 µM)	–	inactive
CCCCCCN1C(=O)CSc2c(Cl)cccc21	64 (≈ 225 µM)	64 (≈ 225 µM)	32 (≈ 113 µM)	16 (≈ 56.4 µM)	32 (≈ 113 µM)	32 (≈ 113 µM)	16 (≈ 56.4 µM)	32 (≈ 113 µM)	–	–
CC1(C)S[C@@H]2[C@H](NC(=O)[C@H](N)c3ccccc3)C(=O)N2[C@H]1C(=O)O [AMPICILLIN]	–	–	128 (≈ 366 µM)	16 (≈ 45.8 µM)	16 (≈ 45.8 µM)	16 (≈ 45.8 µM)	1 (≈ 2.86 µM)	2 (≈ 5.72 µM)	inactive	inactive
O=C1CSc2cccc(Cl)c2N1C1CCCCC1	128 (≈ 454 µM)	64 (≈ 227 µM)	32 (≈ 114 µM)	32 (≈ 114 µM)	32 (≈ 114 µM)	16 (≈ 56.8 µM)	32 (≈ 114 µM)	16 (≈ 56.8 µM)	–	–
CCCCCCN1C(=O)CSc2cccc(Cl)c21	–	–	64 (≈ 225 µM)	32 (≈ 113 µM)	32 (≈ 113 µM)	32 (≈ 113 µM)	32 (≈ 113 µM)	32 (≈ 113 µM)	inactive	inactive
O=C1CSc2ccc(Cl)cc2N1CC1CCCO1 (stereo not given)	128 (≈ 451 µM)	64 (≈ 226 µM)	128 (≈ 451 µM)	64 (≈ 226 µM)	64 (≈ 226 µM)	32 (≈ 113 µM)	32 (≈ 113 µM)	64 (≈ 226 µM)	–	–
O=C1CSc2cc(Cl)ccc2N1C1CCCCC1	128 (≈ 454 µM)	64 (≈ 227 µM)	32 (≈ 114 µM)	32 (≈ 114 µM)	32 (≈ 114 µM)	16 (≈ 56.8 µM)	32 (≈ 114 µM)	16 (≈ 56.8 µM)	–	–
O=C1CSc2c(Cl)cccc2N1Cc1ccccc1	64 (≈ 221 µM)	128 (≈ 442 µM)	32 (≈ 110 µM)	64 (≈ 221 µM)	64 (≈ 221 µM)	32 (≈ 110 µM)	64 (≈ 221 µM)	64 (≈ 221 µM)	–	–
O=C1CSc2cc(Cl)ccc2N1Cc1ccccc1	–	–	64 (≈ 221 µM)	32 (≈ 110 µM)	32 (≈ 110 µM)	16 (≈ 55.2 µM)	64 (≈ 221 µM)	64 (≈ 221 µM)	inactive	inactive
O=C1CSc2cc(Cl)ccc2N1CC1CCCO1 (stereo not given)	128 (≈ 451 µM)	128 (≈ 451 µM)	64 (≈ 226 µM)	32 (≈ 113 µM)	32 (≈ 113 µM)	16 (≈ 56.4 µM)	64 (≈ 226 µM)	32 (≈ 113 µM)	–	–
CN[C@@H]1[C@H](O[C@H]2[C@H](O[C@H]3[C@H](O)[C@@H](O)[C@H](N=C(N)N)[C@@H](O)[C@@H]3N=C(N)N)O[C@@H](C)[C@]2(O)C=O)O[C@@H](CO)[C@H](O)[C@H]1O [STREPTOMYCIN]	–	–	2 (≈ 3.44 µM)	4 (≈ 6.88 µM)	4 (≈ 6.88 µM)	8 (≈ 13.8 µM)	32 (≈ 55 µM)	2 (≈ 3.44 µM)	inactive	inactive
O=C1CSc2c(Cl)cccc2N1C1CCCCC1	64 (≈ 227 µM)	128 (≈ 454 µM)	64 (≈ 227 µM)	32 (≈ 114 µM)	32 (≈ 114 µM)	32 (≈ 114 µM)	32 (≈ 114 µM)	16 (≈ 56.8 µM)	–	–
O=C1CSc2ccc(Cl)cc2N1C1CCCCC1	–	256 (≈ 908 µM)	128 (≈ 454 µM)	64 (≈ 227 µM)	64 (≈ 227 µM)	32 (≈ 114 µM)	64 (≈ 227 µM)	32 (≈ 114 µM)	inactive	–
CCCCCCN1C(=O)CSc2cc(Cl)ccc21	256 (≈ 902 µM)	128 (≈ 451 µM)	64 (≈ 225 µM)	64 (≈ 225 µM)	32 (≈ 113 µM)	64 (≈ 225 µM)	32 (≈ 113 µM)	32 (≈ 113 µM)	–	–
